Test results reported in ChEMBL document CHEMBL1155668, “A new depsipeptide from the sacoglossan mollusk Elysia ornata and the green alga Bryopsis species” (J Nat Prod, 2000).
Calls of active or inactive are those of the source.

Assays:
Format in all cases: functional, cell-based
P388 = assay: Growth inhibition of mouse P388 cells at 10 ug/mL
MEL28 = assay: Growth inhibition of human MEL28 cells at 10 ug/mL
A549 = assay: Growth inhibition of human A549 cells at 10 ug/mL
HT-29 = assay: Growth inhibition of human HT29 cells at 10 ug/mL

Measured: Activity

CC[C@H](C)[C@@H]1NC(=O)[C@H]([C@@H](C)O)NC(=O)[C@@H](Cc2c[nH]c3ccccc23)NC(=O)[C@@H](Cc2ccc(O)cc2)NC(=O)[C@@H](NC(=O)CNC(=O)CCCC(C)C)[C@@H](C)OC(=O)[C@H](C(C)C)NC1=O
inactive: all assays above
